According to patent US9708314B2, “Heterocyclic amide compound” (NISSAN CHEMICAL INDUSTRIES, LTD., priority 2013, dated 2017):

What was measured:
Type in all cases: in vivo
Apera spica-venti. = assay: Test Example 4: herbicidal effect by application to foliage (diluvial soil, plastic box); details: for L (Apera spica-venti.) herbicidal effect grade: Application herbicide amount 320 g/ha, foliage application
Outline: (§1)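 Read-out is a 0–5 visual grade of herbicidal ratio (5: ≥90%, almost withered; 0: ≤5%) taken three weeks after treatment. Compound was applied as a diluted emulsion to stem and leaf parts of 14-day greenhouse-grown plants (25° C. to 30° C.) at rates expressed as g/ha.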

Avena fatua = assay: as above; details: for I (Avena fatua) herbicidal effect grade: Application herbicide amount 320 g/ha, foliage application
Outline: as §1

Amaranthus retroflexus = assay: as above; details: for N (Amaranthus retroflexus) herbicidal effect grade: Application herbicide amount 320 g/ha, foliage application
Outline: as §1

Lolium multiflorum Lam. = assay: as above; details: for K (Lolium multiflorum Lam.) herbicidal effect grade: Application herbicide amount 320 g/ha, foliage application
Outline: as §1

[1] = tested on: Echinochloa crus-galli var. crus-galli; assay: as above; details: for H (Echinochloa crus-galli var. crus-galli) herbicidal effect grade: Application herbicide amount 320 g/ha, foliage application
Outline: as §1

Galium spurium = assay: as above; details: for Q (Galium spurium) herbicidal effect grade: Application herbicide amount 320 g/ha, foliage application
Outline: as §1

Chenopodium album = assay: as above; details: for O (Chenopodium album) herbicidal effect grade: Application herbicide amount 320 g/ha, foliage application
Outline: as §1

Digitaria ciliaris = assay: as above; details: for F (Digitaria ciliaris) herbicidal effect grade: Application herbicide amount 320 g/ha, foliage application
Outline: as §1

Abutilon theophrasti = assay: as above; details: for M (Abutilon theophrasti) herbicidal effect grade: Application herbicide amount 320 g/ha, foliage application
Outline: as §1

Veronica persica = assay: as above; details: for R (Veronica persica) herbicidal effect grade: Application herbicide amount 320 g/ha, foliage application
Outline: as §1

Alopecurus myosuroides = assay: as above; details: for J (Alopecurus myosuroides) herbicidal effect grade: Application herbicide amount 320 g/ha, foliage application
Outline: as §1

Setaria viridis = assay: as above; details: for G (Setaria viridis) herbicidal effect grade: Application herbicide amount 320 g/ha, foliage application
Outline: as §1

Scirpus juncoides = assay: Test Example 2: herbicidal activity, application during weed generation in submerged conditions; details: Eighteenth Table; application herbicide amount 320 g/ha
Outline: (§2)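 Paddy-type pot test: flooded soil, 4 cm depth, greenhouse 25–30 °C. Emulsion formulation diluted in water, applied to water surface at 1–2 leaf stage; rate expressed as g/ha. Read-out at 3 wk, 0–5 score.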

Monochoria vaginalis = assay: as above; details: Eighteenth Table; application herbicide amount 320 g/ha
Outline: as §2

[2] = tested on: Echinochloa oryzacola Vasing.; assay: as above; details: Eighteenth Table; application herbicide amount 320 g/ha
Outline: as §2

[3] = application to foliage, application herbicide amount 320 g/ha

SMILES	L (Apera spica-venti.) herbicidal effect grade (Apera spica-venti.)	I (Avena fatua) herbicidal effect grade (Avena fatua)	N (Amaranthus retroflexus) herbicidal effect grade (Amaranthus retroflexus)	K (Lolium multiflorum Lam.) herbicidal effect grade (Lolium multiflorum Lam.)	H (Echinochloa crus-galli var. crus-galli) herbicidal effect grade [1]	Q (Galium spurium) herbicidal effect grade (Galium spurium)	O (Chenopodium album) herbicidal effect grade (Chenopodium album)	F (Digitaria ciliaris) herbicidal effect grade (Digitaria ciliaris)	M (Abutilon theophrasti) herbicidal effect grade (Abutilon theophrasti)	R (Veronica persica) herbicidal effect grade (Veronica persica)	J (Alopecurus myosuroides) herbicidal effect grade (Alopecurus myosuroides)	G (Setaria viridis) herbicidal effect grade (Setaria viridis)	B (Scirpus juncoides) herbicidal ratio grade (Scirpus juncoides)	C (Monochoria vaginalis) herbicidal ratio grade (Monochoria vaginalis)	A (Echinochloa oryzicola Vasing.) herbicidal ratio grade [2]	also measured
CSCc1nnc2c(C(=O)Nc3nnco3)ccc(C(F)(F)F)n12 [1-146]	4 (Herbicidal ratio of 70% or more and less than 90%)	4 (Herbicidal ratio of 70% or more and less than 90%)	5 (Herbicidal ratio of 90% or more (almost completely withered))	4 (Herbicidal ratio of 70% or more and less than 90%)	5 (Herbicidal ratio of 90% or more (almost completely withered))	5 (Herbicidal ratio of 90% or more (almost completely withered))	5 (Herbicidal ratio of 90% or more (almost completely withered))	5 (Herbicidal ratio of 90% or more (almost completely withered))	4 (Herbicidal ratio of 70% or more and less than 90%)	5 (Herbicidal ratio of 90% or more (almost completely withered))	2 (Herbicidal ratio of 20% or more and less than 40%)	5 (Herbicidal ratio of 90% or more (almost completely withered))	3 (Herbicidal ratio of 40% or more and less than 70%)	3 (Herbicidal ratio of 40% or more and less than 70%)	3 (Herbicidal ratio of 40% or more and less than 70%)	
Cn1nnnc1NC(=O)c1ccc(C(F)(F)F)n2c(COCC(F)(F)F)nnc12 [2-015]													5 (Herbicidal ratio of 90% or more (almost completely withered))	4 (Herbicidal ratio of 70% or more and less than 90%)	4 (Herbicidal ratio of 70% or more and less than 90%)	L: herbicidal effect on Apera spica-venti. (Apera spica-venti.; [3]): 2 (Herbicidal ratio of 20% or more and less than 40%); I: herbicidal effect on Avena fatua (Avena fatua; [3]): 2 (Herbicidal ratio of 20% or more and less than 40%); N: herbicidal effect on Amaranthus retroflexus (Amaranthus retroflexus; [3]): 5 (Herbicidal ratio of 90% or more (almost completely withered)); K: herbicidal effect on Lolium multiflorum Lam. (Lolium multiflorum Lam.; [3]): 2 (Herbicidal ratio of 20% or more and less than 40%); H: herbicidal effect on Echinochloa crus-galli var. crus-galli [1, 3]: 5 (Herbicidal ratio of 90% or more (almost completely withered)); Q: herbicidal effect on Galium spurium (Galium spurium; [3]): 3 (Herbicidal ratio of 40% or more and less than 70%); O: herbicidal effect on Chenopodium album (Chenopodium album; [3]): 5 (Herbicidal ratio of 90% or more (almost completely withered)); F: herbicidal effect on Digitaria ciliaris (Digitaria ciliaris; [3]): 5 (Herbicidal ratio of 90% or more (almost completely withered)); M: herbicidal effect on Abutilon theophrasti (Abutilon theophrasti; [3]): 5 (Herbicidal ratio of 90% or more (almost completely withered)); R: herbicidal effect on Veronica persica (Veronica persica; [3]): 3 (Herbicidal ratio of 40% or more and less than 70%); J: herbicidal effect on Alopecurus myosuroides (Alopecurus myosuroides; [3]): 2 (Herbicidal ratio of 20% or more and less than 40%); G: herbicidal effect on Setaria viridis (Setaria viridis; [3]): 4 (Herbicidal ratio of 70% or more and less than 90%)
CCN(C)c1nnc2c(C(=O)Nc3nnco3)ccc(C(F)(F)F)n12 [1-137]	4 (Herbicidal ratio of 70% or more and less than 90%)	3 (Herbicidal ratio of 40% or more and less than 70%)	4 (Herbicidal ratio of 70% or more and less than 90%)	2 (Herbicidal ratio of 20% or more and less than 40%)	5 (Herbicidal ratio of 90% or more (almost completely withered))	3 (Herbicidal ratio of 40% or more and less than 70%)	5 (Herbicidal ratio of 90% or more (almost completely withered))	4 (Herbicidal ratio of 70% or more and less than 90%)	3 (Herbicidal ratio of 40% or more and less than 70%)	5 (Herbicidal ratio of 90% or more (almost completely withered))	2 (Herbicidal ratio of 20% or more and less than 40%)	5 (Herbicidal ratio of 90% or more (almost completely withered))	3 (Herbicidal ratio of 40% or more and less than 70%)	3 (Herbicidal ratio of 40% or more and less than 70%)	3 (Herbicidal ratio of 40% or more and less than 70%)	
COCCNc1nnc2c(C(=O)Nc3nnc(C)o3)ccc(C(F)(F)F)n12 [1-109]	0 (Herbicidal ratio of 5% or less (almost no effect))	1 (Herbicidal ratio of 5% or more and less than 20%)	4 (Herbicidal ratio of 70% or more and less than 90%)	0 (Herbicidal ratio of 5% or less (almost no effect))	5 (Herbicidal ratio of 90% or more (almost completely withered))	2 (Herbicidal ratio of 20% or more and less than 40%)	5 (Herbicidal ratio of 90% or more (almost completely withered))	4 (Herbicidal ratio of 70% or more and less than 90%)	4 (Herbicidal ratio of 70% or more and less than 90%)	4 (Herbicidal ratio of 70% or more and less than 90%)	0 (Herbicidal ratio of 5% or less (almost no effect))	3 (Herbicidal ratio of 40% or more and less than 70%)	1 (Herbicidal ratio of 5% or more and less than 20%)	0 (Herbicidal ratio of 5% or less (almost no effect))	0 (Herbicidal ratio of 5% or less (almost no effect))	
Cc1nnc(NC(=O)c2ccc(C(F)(F)F)n3c(SCC4OCCO4)nnc23)o1 [1-126]	1 (Herbicidal ratio of 5% or more and less than 20%)	0 (Herbicidal ratio of 5% or less (almost no effect))	3 (Herbicidal ratio of 40% or more and less than 70%)	0 (Herbicidal ratio of 5% or less (almost no effect))	5 (Herbicidal ratio of 90% or more (almost completely withered))	1 (Herbicidal ratio of 5% or more and less than 20%)	5 (Herbicidal ratio of 90% or more (almost completely withered))	4 (Herbicidal ratio of 70% or more and less than 90%)	3 (Herbicidal ratio of 40% or more and less than 70%)	4 (Herbicidal ratio of 70% or more and less than 90%)	0 (Herbicidal ratio of 5% or less (almost no effect))	3 (Herbicidal ratio of 40% or more and less than 70%)	3 (Herbicidal ratio of 40% or more and less than 70%)	3 (Herbicidal ratio of 40% or more and less than 70%)	1 (Herbicidal ratio of 5% or more and less than 20%)	
